Measurements reported in article PMC11672724, “Antiparasitic Activities of Acyl Hydrazones from Cinnamaldehydes and Structurally Related Fragrances” (Antibiotics, 2024).

How the values were obtained:
L. major promastigotes = test: Leishmania major promastigote assay (MTT, 72 h); assay type: cell-based
Experimental: (§1) Promastigotes of L. major were obtained from a patient (February 2016) and cultured at 26 °C in Schneider’s Drosophila medium (Invitrogen, Carlsbad, CA, USA) supplemented with 10% heat-inactivated fetal bovine serum (FBS, Invitrogen, USA) and antibiotics, with weekly transfers in a tissue culture flask. Promastigotes were cryopreserved in liquid nitrogen at a concentration of 3 × 10^6 parasites/mL. Virulent L. major parasites were maintained by serial passage in female BALB/c mice, achieved by injecting hind footpads with 1 × 10^6 stationary-phase promastigotes. Amastigotes were isolated from the mice after 8 weeks, then converted to promastigotes by cultivation at 26 °C in Schneider’s medium containing 10% FBS and antibiotics. Amastigote-derived promastigotes, which underwent several in vitro passages, were used for the infection studies. BALB/c mice (both male and female) were provided by the Pharmaceutical College, King Saud University, Kingdom of Saudi Arabia, and housed in specific pathogen-free conditions following the ethical guidelines of the Qassim University Research Ethics Committee (permission number: 20-03-20).
L. major promastigotes in the logarithmic phase were cultured in phenol-red-free RPMI 1640 medium (Invitrogen, USA) with 10% FBS in 96-well plates at 10^6 cells/mL (200 μL/well, counted with a hemocytometer). Test compounds were added at final concentrations of 50, 25, 12.5, 6.25, 3.13, 1.65, and 0.75 μg/mL. […] After incubation at 26 °C for 72 h, viable promastigotes were counted using an MTT colorimetric assay. The formed formazan was dissolved in a detergent and the absorbance was measured at 570 nm using an ELISA reader. IC50 values were derived from three independent experiments.

macrophages = test: Macrophage cytotoxicity (MTT assay, 72 h); assay type: cell-based, BALB/c mice; settings: Mus musculus, IC50 ± SD
Experimental: Plates were incubated for 24 h at 37 °C in a 5% CO2 environment to allow infection and amastigote differentiation. Infected cells were then washed with PBS and overlaid with RPMI 1640 medium containing the test compounds at the same concentrations as applied for the experiments with promastigotes, followed by incubation at 37 °C and 5% CO2 for 72 h. […] The percentage of infected macrophages was determined microscopically after fixation, Giemsa staining, and medium removal. IC50 values were calculated from three independent experiments. To assess the test compounds’ cytotoxicity, MTT assays were performed. […] Negative control cells were only given media with 2% FBS and 1% DMSO. The cells were cultured for 4 h after the supernatant was disposed of, and 50 μL of RPMI 1640 media containing 14 μL MTT (5 mg/mL) was added. After removing the supernatant once again, 150 μL of DMSO was added. IC50 values were determined from three independent experiments.

L. major amastigotes = test: Leishmania major amastigotes in peritoneal macrophages (percentage of infected macrophages, 72 h); assay type: cell-based; settings: Macrophage, IC50 ± SD
Experimental: as §1
Activity against amastigotes in macrophages was evaluated using peritoneal macrophages, which were harvested from 6–8-week-old BALB/c mice of different sex, and plated at 5 × 10^4 cells/well in 96-well plates containing phenol-red-free RPMI 1640 medium with 10% FBS. After 4 h at 37 °C and 5% CO2 to promote adhesion, cells were washed with PBS, and 200 μL of an L. major promastigote solution (10 promastigotes per macrophage) was added. Plates were incubated for 24 h at 37 °C in a 5% CO2 environment to allow infection and amastigote differentiation. Infected cells were then washed with PBS and overlaid with RPMI 1640 medium containing the test compounds at the same concentrations as applied for the experiments with promastigotes, followed by incubation at 37 °C and 5% CO2 for 72 h. […] IC50 values were calculated from three independent experiments.

[1] = test system: T. gondii RH strain tachyzoites; test: Toxoplasma gondii cells drug testing assay (infection index in Vero cells, 72 h); assay type: cell-based; settings: for IC50: Toxoplasma gondii, Vero, IC50 ± SD, three independent experiments, 72 h; for SI = selectivity index (Vero/T. gondii): ratio IC50 Vero / IC50 T. gondii
Experimental: Cells of the Vero cell line (ATCC® CCL81™, Manassas, VA, USA) were used to cultivate T. gondii RH strain tachyzoites. Vero cells were maintained in complete RPMI 1640 medium (Thermo Fisher Scientific, Waltham, MA, USA). For cell cultivation, 96-well plates were prepared with 5 × 10^3 cells per well in 200 μL of RPMI 1640 medium, then incubated at 37 °C and 5% CO2 for 24 h. The medium was then removed, and cells were washed with phosphate-buffered saline (PBS). Next, RPMI 1640 medium with 2% FBS and parasites at a 5:1 parasite-to-cell ratio were added. After a 5 h incubation at 37 °C and 5% CO2, cells were washed with PBS and subjected to further treatments. […] After incubation at 37 °C and 5% CO2 for 72 h, cells were washed with PBS, fixed in 10% formalin, and stained with 1% toluidine blue. An inverted photomicroscope was used to assess cell infection and to determine the infection index (number of infected cells out of 200 counted cells). The inhibition percentage was calculated as follows:Inhibition (%) = [(I Control − I Experimental)/I Control] × 100 where “I Control” represents the infection index of untreated cells, and “I Experimental” represents the infection index of cells treated with test compounds. The effects of the compounds on parasite growth are expressed as IC50 values derived from three independent experiments.

Vero monkey kidney cells = test: Vero cell cytotoxicity (MTT assay, 72 h); assay type: cell-based; settings: Primates, IC50 ± SD
Experimental: To assess the test compounds’ cytotoxicity, MTT assays were performed. The Vero cells and macrophages were cultivated for 24 h at 37 °C in RPMI 1640 media with 10% FBS and 5% CO2 in 96-well plates (5 × 10^3 cells/well/200 μL). Following a washing step with PBS, the cells were treated with test compounds at different concentrations (50, 25, 12.5, 6.25, 3.13, 1.65, and 0.75 μg /mL) in 10% FBS medium for 72 h. Negative control cells were only given media with 2% FBS and 1% DMSO. The cells were cultured for 4 h after the supernatant was disposed of, and 50 μL of RPMI 1640 media containing 14 μL MTT (5 mg/mL) was added. After removing the supernatant once again, 150 μL of DMSO was added. IC50 values were determined from three independent experiments.

[2] = Leishmania major, 72 h, IC50 ± SD, MTT
[3] = ratio IC50 macrophages / IC50 promastigotes
[4] = verbal statement in text on the L. major experiments

Structure (SMILES)	IC50 (L. major promastigotes; IC50 ± SD, MTT, 72 h)	IC50 (L. major promastigotes; [2])	IC50 (L. major amastigotes)	SI (promastigotes) = selectivity index (macrophages/L. major promastigotes) (L. major promastigotes; [3])	IC50 (macrophages)	IC50 [1]	SI = selectivity index (Vero/T. gondii) [1]	IC50 (Vero monkey kidney cells)	IC50 (L. major promastigotes; Leishmania major; IC50 ± SD, MTT, 72 h)	activity against T. gondii (in words) [1]	activity against L. major promastigotes (in words) (L. major promastigotes; [4])
CC(C)c1cccc(C(C)C/C=N/NC(=O)c2cccc(Cl)c2)c1 (stereo not drawn) [Compound 4f, N′-3-(3-Isopropylphenyl)butanylidene-3-chlorobenzoylhydrazide]	27.9 ± 4.2 µM	< 30 µM	> 58.3 µM	>2.1	> 58.3 µM	47.5 ± 7.3 µM	1.2	57.9 ± 11 µM			
O=C(N/N=C/C=C/c1ccccc1)c1ccncc1 [Compound 2l]		51.3 ± 9.3 µM	> 52.5 µM	>1.0	> 52.5 µM	52.1 ± 8.3 µM	0.99	51.3 ± 7.8 µM			
CC(C)Cc1ccc(CC(C)/C=N/NC(=O)c2cc3ccccc3cc2O)cc1 (stereo not drawn) [Compound 3a, N′-2-Methyl-3-[4-(2-methylpropyl)phenyl]propanylidene-3-hydroxy-2-naphthoic hydrazide]		> 51.5 µM	> 51.5 µM		> 51.5 µM	46.9 ± 8.4 µM	0.88	41.3 ± 6.9 µM			
CC(C)c1cccc(C(C)C/C=N/NC(=O)c2ccccc2O)c1 (stereo not drawn) [Compound 4b, N′-3-(3-Isopropylphenyl)butanylidene-2-hydroxybenzoylhydrazide]		39.5 ± 5.9 µM	45.4 ± 7.9 µM	1.3	50.3 ± 9.4 µM	21 ± 3.5 µM	0.92	19.2 ± 2.2 µM			
CC(C)Cc1ccc(CC(C)C=O)cc1 (stereo not drawn) [Silvial^TM, 2-methyl-3-[4-(2-methylpropyl)phenyl]propanal, reference compound]		> 97.9 µM	> 97.9 µM		> 97.9 µM	90.1 ± 15.2 µM		> 97.9 µM			
O=C/C=C/c1ccccc1 [Cinnamaldehyde, (2E)-3-phenylprop-2-enal]			> 151 µM		> 151 µM	> 151 µM		> 151 µM	> 151 µM	inactive	
CC(C)c1cccc(C(C)CC=NNC(=O)c2cc3ccccc3cc2O)c1 (stereo not drawn) [Compound 4a, N′-3-(3-Isopropylphenyl)butanylidene-3-hydroxy-2-naphthoic hydrazide]	9.6 ± 2.4 µM	< 10 µM	> 53.4 µM		> 53.4 µM	14.4 ± 2.1 µM	2.8	39.6 ± 4.8 µM			moderate activity
O=C(N/N=C/C=C/c1ccccc1)c1cc2ccccc2cc1O [Compound 2a]		16.8 ± 2.8 µM	> 41.7 µM	>2.5	> 41.7 µM	0.63 ± 0.08 µM	11.5	7.3 ± 0.9 µM			moderate activity
CC(C)c1cccc(C(C)CC=O)c1 (stereo not drawn) [Florhydral^TM, 3-(3-isopropylphenyl)butanal, reference compound]		> 105 µM	> 105 µM		> 105 µM	> 105 µM		99.1 ± 18.4 µM			
C(=C\c1ccccc1)/C=N/Nc1ccccc1 [CPH, Cinnamaldehyde phenyl hydrazone, reference compound]		83.7 ± 13.6 µM		0.94	78.4 ± 12.2 µM	12.9 ± 2.1 µM	1.8	23.6 ± 3.9 µM			
CC(C)Cc1ccc(CC(C)/C=N/NC(=O)c2cccc(F)c2)cc1 (stereo not drawn) [Compound 3e, N′-2-Methyl-3-[4-(2-methylpropyl)phenyl]propanylidene-3-fluorobenzoylhydrazide]		> 58.8 µM	> 58.8 µM		> 58.8 µM	45.3 ± 6.9 µM	1.2	53.5 ± 8.5 µM			
CN(C)c1ccc(/C=C/C=N/NC(=O)c2ccccc2O)cc1 [Compound 2d, (E)-N′-(4-Dimethylaminocinnamylidene)-2-hydroxybenzoylhydrazide]		> 42.7 µM	> 42.7 µM		> 42.7 µM	3.9 ± 0.5 µM	5.7	22 ± 3 µM		reasonable activity	

Second part, led by results:

IC50 (L. major promastigotes; IC50 ± SD, MTT, 72 h)	IC50 (L. major promastigotes; [2])	IC50 (L. major amastigotes)	Structure (SMILES)	SI (promastigotes) = selectivity index (macrophages/L. major promastigotes) (L. major promastigotes; [3])	IC50 (macrophages)	IC50 [1]	SI = selectivity index (Vero/T. gondii) [1]	IC50 (Vero monkey kidney cells)	IC50 (L. major promastigotes; Leishmania major; IC50 ± SD, MTT, 72 h)	activity against T. gondii (in words) [1]	activity against L. major promastigotes (in words) (L. major promastigotes; [4])
	> 74.6 µM	> 74.6 µM	O=C(N/N=C/C=C/c1ccccc1)c1ccccc1F [Compound 2g]		> 74.6 µM	69.4 ± 10 µM		> 74.6 µM			
	54.6 ± 9 µM	> 64.6 µM	CC(C)c1cccc(C(C)C/C=N/NC(=O)c2ccncc2)c1 (stereo not drawn) [Compound 4g, N′-3-(3-Isopropylphenyl)butanylidene-isonicotinoylhydrazide]	>1.2	> 64.6 µM	> 64.6 µM		> 64.6 µM			
	> 61.3 µM	> 61.3 µM	CC(C)c1cccc(C(C)C/C=N/NC(=O)c2ccccc2F)c1 (stereo not drawn) [Compound 4d, N′-3-(3-Isopropylphenyl)butanylidene-2-fluorobenzoylhydrazide]		> 61.3 µM	> 61.3 µM		> 61.3 µM			
	> 36.7 µM	> 36.7 µM	CN(C)c1ccc(/C=C/C=N/NC(=O)c2cc3ccccc3cc2O)cc1 [Compound 2b]		> 36.7 µM	23.4 ± 3.9 µM	1.0	24.2 ± 2.7 µM			
	> 44.8 µM	> 44.8 µM	CN(C)c1ccc(/C=C/C=N/NC(=O)c2ccncc2)cc1 [Compound 2m]		> 44.8 µM	31.6 ± 6.2 µM	1.3	41.5 ± 7.2 µM			
	47.7 ± 6.5 µM	> 49.6 µM	O=C(N/N=C/C=C/c1ccccc1)c1ccccc1O [Compound 2c]	0.91	43.6 ± 8.6 µM	1.1 ± 0.2 µM	17.3	19.5 ± 2.6 µM			
